SMILES strings stand for the structures.

In one test the test system is Mouse primary microglia IL-1β. Put plainly: Inflammasome assay in primary mouse postnatal microglia using LPS/0 mM extracellular K+ (IL-1β release). It is filed as cell-based. The note with it: 100 ng/mL LPS 3.5 h, compound 30 min, K+ free buffer 2 h, IL-1β levels by MesoScale. The protocol: 3. Inflammasome Assay in Primary Mouse Postnatal Microglia Using LPS/0 mM Extracellular K^+
Newly shaken mouse microglia cells were added to a 96-well plate and left to adhere overnight. After this time, 100 ng/mL LPS was added to each well and incubated at 37° C. for 3.5 hours, at which point compound addition was undertaken and plates incubated at 37° C. for an additional 30 minutes. After this time, the medium in each well was removed and replaced with K^+ free buffer and the plates then incubated for an additional 2 hours at 37° C. Measurement of IL-1β levels in the sample wells was undertaken using MesoScale Discovery™ MESO QuickPlex SQ 120 and IL-1β antibodies from mouse IL-1β DuoSet ELISA kit (R&D System, DY401).
On to `COc1ncc(F)cc1C(=O)N(C)C1CCc2ccccc21` (single isomer, unassigned) [Example 16, N-(2,3-dihydro-1H-inden-1-yl)-5-fluoro-2-methoxy-N-methylnicotinamide], for which the 50% inhibitory concentration (IC50) (in general, the concentration that inhibits the measured activity by half) was at most 600 nM.
`COc1ncc(Cl)cc1C(=O)N(C)Cc1cccc(F)c1` [Example 24, 5-chloro-N-(3-fluorobenzyl)-2-methoxy-N-methylnicotinamide] registered an IC50 of at most 150 nM.
`COc1ncc(F)cc1C(=O)N(C)Cc1ccc(F)cc1F` [Example 39, N-(2,4-difluorobenzyl)-5-fluoro-2-methoxy-N-methylnicotinamide] yielded an IC50 of at most 300 nM.

The target in another test is T1, human KCNK13 (Homo sapiens, UniProt Q9HB14).
T1 construct: expressed in transfected cells
T1 sequence (Q9HB14 1-408): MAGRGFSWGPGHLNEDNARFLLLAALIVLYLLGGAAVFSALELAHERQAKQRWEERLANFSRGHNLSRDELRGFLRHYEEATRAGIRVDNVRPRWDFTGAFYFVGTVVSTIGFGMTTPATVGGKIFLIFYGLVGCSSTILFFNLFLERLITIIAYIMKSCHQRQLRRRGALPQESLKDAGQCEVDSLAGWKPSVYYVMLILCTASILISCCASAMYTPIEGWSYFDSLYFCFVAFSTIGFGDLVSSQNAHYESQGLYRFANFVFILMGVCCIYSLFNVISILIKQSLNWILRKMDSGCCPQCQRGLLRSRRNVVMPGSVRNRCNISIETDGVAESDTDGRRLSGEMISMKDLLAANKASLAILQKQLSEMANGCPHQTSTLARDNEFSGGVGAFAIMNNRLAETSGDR
Put plainly: KCNK13 antagonist activity, thallium flux FLIPR assay in HEK 293 cells stably expressing human KCNK13. It counts as cell-based. The following applies: HEK 293 cells stably expressing human KCNK13, Tl+ sensitive dye, compound 15 min before thallium sulfate, ten point curves; read-out: hKCNK13 IC50. The method, boiled down: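 HEK 293 cells stably expressing human KCNK13, loaded with Tl+-sensitive dye 1 h at room temperature, then exposed to compound for 15 min before thallium sulfate stimulus. Tl+ influx read by FLIPR fluorescence; IC50 from ten-point half-log curves starting at 100 µM, each point averaging two wells.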
In the case of `COc1ncc(F)cc1C(=O)N(C)C1CCc2ccccc21` (single isomer, unassigned) [Example 16, N-(2,3-dihydro-1H-inden-1-yl)-5-fluoro-2-methoxy-N-methylnicotinamide], the IC50 is at most 500 nM.
As to `COc1ncc(Cl)cc1C(=O)N(C)Cc1cccc(F)c1` [Example 24, 5-chloro-N-(3-fluorobenzyl)-2-methoxy-N-methylnicotinamide], the concentration for half-maximal inhibition (IC50) is at most 50 nM.
For `COc1ncc(F)cc1C(=O)N(C)Cc1ccc(F)cc1F` [Example 39, N-(2,4-difluorobenzyl)-5-fluoro-2-methoxy-N-methylnicotinamide], the IC50 was at most 200 nM.
Same read-out and setting: the same measure for `CN(Cc1cccc(C#N)c1)S(=O)(=O)c1cc(F)cnc1OC(F)F` [Example 106, N-(3-cyanobenzyl)-2-(difluoromethoxy)-5-fluoro-N-methylpyridine-3-sulfonamide]: at most 500 nM; for `CN(Cc1cccc(F)c1F)S(=O)(=O)c1cc(F)cnc1OC(F)F` [Example 107, N-(2,3-difluorobenzyl)-2-(difluoromethoxy)-5-fluoro-N-methylpyridine-3-sulfonamide]: at most 100 nM.
`CN(Cc1cccc(Cl)c1)S(=O)(=O)c1cc(F)cnc1OC(F)F` [Example 108, N-(3-chlorobenzyl)-2-(difluoromethoxy)-5-fluoro-N-methylpyridine-3-sulfonamide]: the IC50 is at most 200 nM.
As for `CCN(Cc1cccc(F)c1)S(=O)(=O)c1cc(F)cnc1OC(F)F` [Example 109, 2-(difluoromethoxy)-N-ethyl-5-fluoro-N-(3-fluorobenzyl)pyridine-3-sulfonamide], the half-maximal inhibitory concentration (IC50) is at most 1000 nM.
In the case of `O=S(=O)(c1cc(F)cnc1OC(F)F)N1CCc2ccccc2C1` [Example 110, 2-((2-(difluoromethoxy)-5-fluoropyridin-3-yl)sulfonyl)-1,2,3,4-tetrahydroisoquinoline], the IC50 was at most 100 nM.
For `O=S(=O)(c1cc(F)cnc1OC(F)F)N1CCc2ccc(F)cc2C1` [Example 111, 2-((2-(difluoromethoxy)-5-fluoropyridin-3-yl)sulfonyl)-7-fluoro-1,2,3,4-tetrahydroisoquinoline], the IC50 was at most 200 nM.
On to `CN(Cc1cccc(F)c1)S(=O)(=O)c1cc(F)cnc1OC(F)F` [Example 112, 2-(difluoromethoxy)-5-fluoro-N-(3-fluorobenzyl)-N-methylpyridine-3-sulfonamide], for which the IC50 was at most 100 nM.
As for `CN(Cc1cccc(F)c1)S(=O)(=O)c1cc(Cl)cnc1OC(F)F` [Example 113, 5-chloro-2-(difluoromethoxy)-N-(3-fluorobenzyl)-N-methylpyridine-3-sulfonamide], the IC50 is at most 500 nM.
Turning to `O=S(=O)(c1cc(F)cnc1OC(F)F)N1CCOc2ccc(F)cc2C1` [Example 114, 4-((2-(difluoromethoxy)-5-fluoropyridin-3-yl)sulfonyl)-7-fluoro-2,3,4,5-tetrahydrobenzo[f][1,4]oxazepine], the IC50 was at most 200 nM.
Take `O=S(=O)(c1cc(Cl)cnc1OC(F)F)N1CCOc2ccc(F)cc2C1` [Example 115, 4-((5-chloro-2-(difluoromethoxy)pyridin-3-yl)sulfonyl)-7-fluoro-2,3,4,5-tetrahydrobenzo[f][1,4]oxazepine]: the IC50 was at most 500 nM.
With `O=S(=O)(c1cc(F)cnc1OC(F)F)N1CCc2cc(F)cc(F)c2C1` [Example 116], the IC50 was at most 500 nM.
On to `COc1ncc(Cl)cc1C(=O)N(C)Cc1c(F)cccc1F` [Example 117, 5-chloro-N-(2,6-difluorobenzyl)-2-methoxy-N-methylnicotinamide], for which the IC50 was at most 200 nM.
As for `COc1ncc(Cl)cc1C(=O)N(C)Cc1c(Cl)cccc1Cl` [Example 118, 5-chloro-N-(2,6-dichlorobenzyl)-2-methoxy-N-methylnicotinamide], the IC50 was at most 200 nM.
As for `CN(C(=O)c1cc(Cl)cnc1OC(F)F)C1CS(=O)(=O)c2ccccc21` (stereo not drawn) [Example 119, 5-chloro-2-(difluoromethoxy)-N-(1,1-dioxido-2,3-dihydrobenzo[b]thiophen-3-yl)-N-methylnicotinamide], the IC50 was at most 500 nM.
On to `N#Cc1cc(F)ccc1S(=O)(=O)N1CCOc2ccc(F)cc2C1` [Example 120, 5-fluoro-2-((7-fluoro-2,3-dihydrobenzo[f][1,4]oxazepin-4(5H)-yl)sulfonyl)benzonitrile], for which the IC50 is at most 200 nM.
